The text below walks through data of patent US10172825B2, “Pharmacological treatment of cognitive impairment” (priority 2006, dated 2019).

“Also recorded” adds a separate entry of the source. Where two headings read alike, the source gives them in different places.

The test system of data set [1] is rats. The settings on record: dose selective for α5-containing GABAA receptors; cited from earlier work.
For data set [2], the system named is rats. The note with it: cited from earlier work.
For data set [3] the following is noted: cited from earlier work.
For data set [4] the following is noted: cited from earlier work. The source holds these as a separate data set.
For data set [5], the system named is Ts65Dn mice. The data set can be described thus: Spontaneous holeboard task. The data set is classed as in vivo, mouse. From the text:
One cohort of WT and Ts65Dn mice, used to determine the effects of chronic Metrazol on Ts65Dn object recognition performance, were submitted to a spontaneous holeboard task approximately 1 month after the end of Metrazol treatment and object recognition testing. Here, milk- and drug-treated animals (now 5.0 months of age) were habituated to Med Associates open field activity monitors (27.9 cm×27.9 cm) (FIGS. 7b and 7c), and then evaluated for holeboard exploration during a 7-min session. Please note that 2 rounds of holeboard testing were conducted during the light phase of the light/dark cycle, and were separated by a 1-week interval. […] N values reflect the number of observations (repetitions) per treatment. Values are expressed as mean±SEM.

The test system of the next data set is rats and mice. The note with it: acute post-training, peripheral injection or oral intake; cited from earlier work.
Data set [6] deals with Ts65Dn mice. The data set can be described thus: Two-object based object recognition task. The note with it: for Persistence of cognitive improvement after drug treatment, summary statement: after cessation of chronic treatment; for Object recognition memory, summary statement: chronic administration. Type of data set: in vivo, mouse. An excerpt: The object recognition task, a behavioral assay not requiring explicit rule learning or prolonged training, is based on the innate tendency of mice to differentially explore novel objects over familiar ones. Animals are submitted to daily handling sessions and are given an opportunity to habituate to a black acrylic, boxed enclosure, where they are exposed to two different objects during a 15-min training session. […] All are generally consistent in height and volume, and are symmetrical on a horizontal plane. They are set in two corners of the apparatus, positioned across from one another along its diameter. Subsequently, a 15-min. testing session is conducted 24 h after training. Here, the mice are presented with the object they had explored the previous day, and a new item (the objects being alternatively positioned in one corner or another in a balanced fashion).
Memory is operationally defined as the proportion of time animals spend investigating the novel object minus the proportion spent investigating the familiar one (Discrimination Index, DI=[Novel Object Exploration Time/Total Exploration Time−Familiar Object Exploration Time/Total Exploration Time]×100), where exploration constitutes any investigative behavior (i.e., head orientation, sniffing) or deliberate contact (i.e. rearing, licking) that occurs with each object. Behavioral trials are recorded by a tripod-mounted digital camera. Importantly, the object recognition task can be used repeatedly to evaluate rodent memory across time, and across various drug treatment regiments. Mice are trained and tested once per week, each experimental session separated by a 1-week interval, and are serially presented with new sets of objects. In this scheme, each mouse is considered a naïve subject, and each week's performance is considered an independent observation. Finally, all behavioral data are analyzed by Student's unpaired t tests.
Moreover, learning performance in the test is not confounded by task aversiveness, a variable common in avoidance paradigms, in food-motivated tasks, and in the Morris water maze (MWM). […] Thus, object recognition is an appropriate rodent cognitive task to assess Ts65Dn learning and memory deficits, and the mitigation of these deficits with pharmacological treatment.
The present experiment was carried out in a longitudinal, cross-over fashion, submitting four cohorts of WT and Ts65Dn experiment al pairs to a 4-week testing schedule. […] Note that untreated WT and Ts65Dn pairs had been previously run in order to validate the 2-object recognition test. […] N values reflect the number of observations (repetitions) per treatment. DI values are expressed as mean±SEM.
The animals were randomly assigned to groups receiving daily servings of chocolate milk or Metrazol (3 mg/kg), and were submitted to two repetitions of object recognition testing. For the purposes of drug delivery, all mice were conditioned to drinking chocolate milk in their home cages and then in cylindrical feeding tubes for 4 days. Subsequent to this conditioning, they were placed daily into the feeding tubes, and presented with small eppendorf caps of milk or a milk-Metrazol cocktail. The milk solutions were typically consumed within 10 min, after which the mice were returned to their home cages. In the current experiment, two cohorts of WT and Ts65Dn mice were submitted to a twoweek testing schedule. […] N values reflect the number of observations (repetitions) per treatment. DI values are expressed as mean±SEM.

In data set [7] the test system is Ts65Dn mice. The data set can be described thus: Hippocampal LTP after chronic drug administration. Type of data set: in vivo, mouse. The settings on record: after chronic once a day administration. An excerpt: It is shown that chronic (but not acute) once a day drug administration in Ts65Dn mice was able to normalize cognitive performance in the novel object recognition and spontaneous alteration tasks, and to rescue hippocampal LTP (see also Fernandez et al. (2007) Nat. Neurosci. 10, 411-413, herein specifically incorporated by reference).

Data set [8] deals with rats. The note with it: chronic subcutaneous, approximately 10.0 mg/kg, ~9 months; cited from earlier work.
Data set [9] has as its system children with Down Syndrome. The note with it: children with Down Syndrome (Cocchi 1985); cited from earlier work.
For data set [10] the following is noted: humans, oral intake of a 80-120 mg dose of ginkgo biloba leaf extract; cited from earlier work.
The subject of data set [11] is Ts65Dn mice. The data set can be described thus: Accelerating rotorod test (motor learning). The settings on record: chronic PTX treatment (FIG. 12). The data set is classed as in vivo, mouse.
The next data set concerns Ts65Dn hippocampal LTP. The settings on record: application of picrotoxin in vitro (Kleschevnikov 2004); cited from earlier work.
Data set [12] deals with hippocampal population spikes. The note with it: cited from earlier work.
The conditions of data set [13]: barbital-induced narcosis; cited from earlier work.

`CCOC(=O)c1ncn2c1[C@@H]1CCCN1C(=O)c1cc(OC)ccc1-2` [L-655,708]: in the data set on rats [1], the Pro-convulsant effect entry was “not pro-convulsant”. In addition, the Cognition result with rats [2] is given as “enhance cognition in rats”.

Consider `C1CCc2nnnn2CC1` [Metrazol, pentamethylenetetrazol], for which the “Distribution between brain regions” value in data set [3] (after intraperitoneal injection, cerebellum, midbrain, cortex) is recorded as “allocated evenly between the 3 major brain divisions”. In addition, the “Time to maximum physiological levels” value in data set [3] (after oral intake or systemic injection) is listed as 5-10 min. Besides, in data set [3] (in vivo), the Blood-brain barrier passage result is listed as “readily crosses the blood-brain barrier”, the Half-life was 1 to 2 h and the Volume of distribution entry is “approximates the volume of total body water”. Also, in data set [4] (humans, dose range of less than about 100-400 mg/day), the “Adverse or toxic effects” value was “little to no adverse or toxic effects”. Moreover, in data set [4] (patients on Metrazol), the Electrocardiographic tracings result was “no abnormalities in their electrocardiographic tracings” and the “Temperature curves, respiration, blood sugar, icteric index, pulse rate” value is listed as “no changes in temperature curves, respiration, blood sugar, icteric index or pulse rate”. In addition, in the data set with Ts65Dn mice [5] (Ts65Dn mice about 1 month after end of Metrazol treatment, compared with WT-milk (p>0.07) and WT-Metrazol (p<0.31)), the “Holeboard exploration efficiency (head-dips into previously explored holes)” value is on record as “showed similar exploration efficiency”. Also, in the data set with Ts65Dn mice [5] (Ts65Dn mice after GABA antagonist treatment with Metrazol), the “Holeboard exploration efficiency, summary statement” value is “rescued and persevere in Ts65Dn mice”. The Learning and memory entry with rats and mice is “facilitate normal learning and memory in rats and mice”. In the data set with Ts65Dn mice [6] (Ts65Dn mice), the “Persistence of cognitive improvement after drug treatment, summary statement” value (“Persistence of cognitive improvement” below) is on record as “found to have longevity in its effects for weeks after treatment” and the “Object recognition memory, summary statement” value is on record as “restore Ts65Dn object recognition performance”. Besides, the “Persistence of cognitive improvement” value with Ts65Dn mice [6] (Ts65Dn mice, listed as PTZ) is “persistent, post-drug recovery of Ts65Dn cognition”. Moreover, in the data set with Ts65Dn mice [6] (Ts65Dn mice, daily oral Metrazol 3 mg/kg in milk, compared with Ts65Dn mice given milk alone (p<0.03)), the “Discrimination Index (DI), object recognition memory” value (“Discrimination Index (DI)” below) is given as “significantly higher than Ts65Dn mice administered milk alone”. In addition, the “Discrimination Index (DI)” value in the data set on Ts65Dn mice [6] (Ts65Dn mice, daily oral Metrazol 3 mg/kg in milk, two weeks, compared with WT mice given milk (p<0.16) or Metrazol (p<0.47)) was “DI scores on par with those of WT mice given milk”. In the data set with Ts65Dn mice [7], the “Post-drug recovery of hippocampal LTP” value is “post-drug recovery of Ts65Dn cognition and LTP lasting for several months”. In the data set with rats [8], the “Reversal learning in a shock-motivated, spatial maze task” value was “elevates reversal learning” and the “Signs of neuronal aging in the hippocampus” value is listed as “curtails signs of neuronal aging in the hippocampus”.

With `CN1C(=O)CN=C(c2ccccc2)c2cc(Cl)ccc21` [diazepam], the Depression result in data set [9] is on record as “reducing depression”.

Take `CC1C(=O)OC2C(O)C34C5CC(C(C)(C)C)C36C(OC(=O)C6O)OC4(C(=O)O5)C12O` (stereo not drawn) [Ginkgolide B, ginkgolide B]: in [10], the Bioavailability entry was “at least 80%” and the Half-life is 6 h.

For Picrotoxin [PTX], in the data set with Ts65Dn mice [11], the “Rotorod performance / motor learning” value is listed as “does not influence Ts65Dn motor learning; also recorded: does not influence Ts65Dn Rotorod Performance”. For the same molecule, the “Deficits in Ts65Dn hippocampal LTP” value with Ts65Dn hippocampal LTP is recorded as “shown to reverse”. In the data set on Ts65Dn mice [6] (PTX-treated Ts65Dn mice after cessation of chronic treatment), the “Time normal object recognition memory is maintained post-treatment” value is reported as “at least 2 weeks”. Moreover, the Object recognition performance entry in the data set on Ts65Dn mice [6] (Ts65Dn mice, acute PTX (FIG. 11)) is “Unable to Reliably Rescue Ts65Dn Performance”. Moreover, in the data set on Ts65Dn mice [6] (Ts65Dn mice), the “Persistence of cognitive improvement” value was “maintained post drug treatment”. Also, the “Object recognition memory, summary statement” value is recorded as “able to recover Ts65Dn declarative memory” in the data set on Ts65Dn mice [6] (Ts65Dn mice); “normalizes object recognition memory in Ts65Dn mice” with Ts65Dn mice [6] (Ts65Dn mice, listed as Picrotoxin); “normalizes learning of Ts65Dn mice in an object recognition task” with Ts65Dn mice [6] (Ts65Dn mice, listed as picrotoxin).

As to `CC(C)(C)[C@]1(O)C[C@@H]2OC(=O)C[C@@]23C(=O)O[C@@H]2OC(=O)[C@H](O)[C@]213` [bilobalide, Bilobalide], in data set [12], the Paired pulse inhibition entry is “decrease paired pulse inhibition”. For the same molecule, the “Amplitude of hippocampal population spikes” value in data set [12] (muscimol-dependent manner) was “significantly increase the amplitude of hippocampal population spikes”. In data set [10], the Bioavailability was 70% and the Half-life is on record as 3 h. Further, the Sleeping time result in data set [13] is on record as “shorten sleeping time”. For the same molecule, the “Discrimination Index (DI)” value in the data set with Ts65Dn mice [6] (Ts65Dn mice, 30 daily i.p. injections through the 4-week testing schedule) is recorded as “resembled Ts65Dn mice receiving PTX”. In addition, the “Object recognition memory, summary statement” value in the data set with Ts65Dn mice [6] (Ts65Dn mice) is “restore Ts65Dn object recognition performance”.
